Assay results from ChEMBL document CHEMBL5352448, “Novel tryptanthrin derivatives with benzenesulfonamide substituents: Design, synthesis, and anti-inflammatory evaluation” (Eur J Med Chem, 2023).
Active and inactive are the calls of the source. The calls are words filed in the database; no cut-off is given here.

Columns and labels:
RAW264.7 [1] = experiment: Cytotoxicity against mouse RAW264.7 cells assessed as reduction in cell viability at 40 uM incubated for 24 hrs by MTT assay; type: toxicity, cell-based; settings: raw264.7, 24 h
RAW264.7 [2] = experiment: Antiinflammatory activity in mouse RAW264.7 cells assessed as inhibition of LPS-induced NO production at 20 uM preincubated with compound for 1 hrs followed by LPS-stimulation and measured after 24 hrs by griess reagent based assay relative to control; type: functional
RAW264.7 [3] = experiment: Antiinflammatory activity in mouse RAW264.7 cells assessed as inhibition of LPS-induced NO production preincubated with compound for 1 hrs followed by LPS-stimulation and measured after 24 hrs by griess reagent based assay; type: functional, cell-based
RAW264.7 [4] = experiment: Antiinflammatory activity in mouse RAW264.7 cells assessed as inhibition of LPS-induced TNF-alpha production preincubated with compound for 1 hrs followed by LPS-stimulation and measured after 24 hrs by ELISA analysis; type: functional, cell-based
[5] = biological target: T1, MAP kinase p38 (Mus musculus) (UniProt P47811+O08911+Q9WUI1+Q9Z1B7); experiment: Inhibition of LPS-induced p38 MAPK signaling activation in mouse RAW264.7 cells assessed as inhibition of p38 alpha phosphorylation preincubated with compound for 1 hrs followed by LPS stimulation and measured after 24 hrs by Western blot analysis; type: cell-based; settings: dose 1-5 µM
RAW264.7 [6] = experiment: Antiinflammatory activity in mouse RAW264.7 cells assessed as suppression of LPS-induced iNOS expression preincubated with compound for 1 hrs followed by LPS-stimulation and measured after 24 hrs by Western blot analysis; type: functional, cell-based; settings: dose 1-5 µM
[7] = biological target: T1, MAP kinase p38 (Mus musculus); experiment: Inhibition of LPS-induced p38 MAPK signaling activation in mouse RAW264.7 cells assessed as reduction of MK2 phosphorylation preincubated with compound for 1 hrs followed by LPS stimulation and measured after 24 hrs by Western blot analysis; type: cell-based; settings: dose 1-5 µM
Rattus norvegicus [8] = experiment: Antiarthritic activity against adjuvant arthritis-induced Sprague-Dawley rat model assessed as decrease in IL-1beta level in serum pre-administered with FCA for 10 days followed by intragastric administration of compound once daily for 14 days by ELISA analysis; type: functional, organism-based; settings: dose 10-30 mg/kg, route ig, time 14.0 day
RAW264.7 [9] = experiment: Antiinflammatory activity in mouse RAW264.7 cells assessed as inhibition of LPS-induced IL-1beta production preincubated with compound for 1 hrs followed by LPS-stimulation and measured after 24 hrs by ELISA analysis; type: functional, cell-based
Rattus norvegicus [10] = experiment: Antiarthritic activity against adjuvant arthritis-induced Sprague-Dawley rat model assessed as decrease in paw swelling pre-administered with FCA for 10 days followed by intragastric administration of compound once daily for 14 days and measured every 4 days; type: functional, organism-based; settings: dose 10-30 mg/kg, route ig, time 14.0 day
Rattus norvegicus [11] = experiment: Antiarthritic activity against adjuvant arthritis-induced Sprague-Dawley rat model assessed as decrease in TNF-alpha level in serum pre-administered with FCA for 10 days followed by intragastric administration of compound once daily for 14 days by ELISA analysis; type: functional, organism-based; settings: dose 10-30 mg/kg, route ig, time 14.0 day
Rattus norvegicus [12] = experiment: Antiarthritic activity against adjuvant arthritis-induced Sprague-Dawley rat model assessed as alleviation of inflammatory cell infiltration at 10 to 30 mg/kg, IG pre-administered with FCA for 10 days followed by compound administration once daily for 14 days by H&E staining microscopic analysis; type: functional, organism-based; settings: dose 10-30 mg/kg, time 14.0 day
RAW264.7 [13] = experiment: Antiinflammatory activity in mouse RAW264.7 cells assessed as suppression of LPS-induced COX-2 expression preincubated with compound for 1 hrs followed by LPS-stimulation and measured after 24 hrs by Western blot analysis; type: functional, cell-based; settings: dose 1-5 µM
Rattus norvegicus [14] = experiment: Antiarthritic activity against adjuvant arthritis-induced Sprague-Dawley rat model assessed as improvement of arthritic index at 10 to 30 mg/kg, IG pre-administered with FCA for 10 days followed by compound administration once daily for 14 days and measured every 4 days; type: functional, organism-based; settings: dose 10-30 mg/kg, time 14.0 day
[15] = biological target: Mitogen-activated protein kinase 14 (Mus musculus) (UniProt P47811); experiment: Thermal stabilization of P38alpha in LPS-induced mouse RAW264.7 cells at 30 uM preincubated with compound for 1 hrs followed by LPS stimulation and measured after 24 hrs at 50 to 55 degreeC by cellular thermal shift assay; type: cell-based
Rattus norvegicus [16] = experiment: Antiarthritic activity against adjuvant arthritis-induced Sprague-Dawley rat model assessed as alleviation of synovial cell proliferation at 10 to 30 mg/kg, IG pre-administered with FCA for 10 days followed by compound administration once daily for 14 days by H&E staining microscopic analysis; type: functional, organism-based; settings: dose 10-30 mg/kg, time 14.0 day
Rattus norvegicus [17] = experiment: Antiarthritic activity against adjuvant arthritis-induced Sprague-Dawley rat model assessed as reduction in body weight loss at 10 to 30 mg/kg, IG pre-administered with FCA for 10 days followed by compound administration once daily for 14 days and measured every 4 days; type: functional, organism-based; settings: dose 10-30 mg/kg, time 14.0 day

Mitogen-activated protein kinase 14 (Mus musculus), sequence (P47811 whole entry): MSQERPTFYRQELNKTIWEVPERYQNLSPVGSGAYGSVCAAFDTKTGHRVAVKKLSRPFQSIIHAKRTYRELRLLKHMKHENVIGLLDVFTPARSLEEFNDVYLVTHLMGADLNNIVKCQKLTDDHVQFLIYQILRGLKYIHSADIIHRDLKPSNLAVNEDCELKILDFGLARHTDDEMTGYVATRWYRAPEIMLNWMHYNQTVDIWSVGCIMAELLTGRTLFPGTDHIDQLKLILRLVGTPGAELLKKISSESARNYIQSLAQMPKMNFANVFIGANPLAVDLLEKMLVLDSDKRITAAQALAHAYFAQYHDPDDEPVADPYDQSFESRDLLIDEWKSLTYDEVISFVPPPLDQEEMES

| Structure (SMILES) | Activity (RAW264.7 [1]) | inhibition at 20 µM (RAW264.7 [2]) [%] | other results |
| --- | --- | --- | --- |
| O=C1c2cc(NS(=O)(=O)c3ccc(F)cc3)ccc2-n2c1nc1ccccc1c2=O | Non-Toxic | 42.5 |  |
| O=C1c2ccccc2-n2c1nc1ccc(NS(=O)(=O)c3ccccc3)cc1c2=O | Non-Toxic | 14.5 |  |
| O=C1c2cc(NS(=O)(=O)c3ccc(OC(F)(F)F)cc3)ccc2-n2c1nc1ccccc1c2=O | Non-Toxic | 42.9 |  |
| CC(C)c1cc(C(C)C)c(S(=O)(=O)Nc2ccc3c(c2)C(=O)c2nc4ccccc4c(=O)n2-3)c(C(C)C)c1 | Non-Toxic | 31.6 |  |
| CC(C)(C)c1ccc(S(=O)(=O)Nc2ccc3c(c2)C(=O)c2nc4ccccc4c(=O)n2-3)cc1 | Non-Toxic | 20.6 |  |
| Nc1ccc2c(c1)C(=O)c1nc3ccccc3c(=O)n1-2 |  | 26.7 |  |
| O=C1c2cc(NS(=O)(=O)c3ccccc3C(F)(F)F)ccc2-n2c1nc1ccccc1c2=O | Non-Toxic | 54.3 |  |
| O=C1c2cc(NS(=O)(=O)c3ccccc3)ccc2-n2c1nc1ccccc1c2=O | Non-Toxic | 28.1 |  |
| O=C1c2cc(NS(=O)(=O)c3cccc(F)c3)ccc2-n2c1nc1ccccc1c2=O | Non-Toxic | 37.5 |  |
| O=C1c2ccccc2-n2c1nc1ccc(NS(=O)(=O)c3ccc(Br)cc3)cc1c2=O | Non-Toxic | 34.2 |  |
| O=C1c2cc(NS(=O)(=O)c3c(Cl)cccc3Cl)ccc2-n2c1nc1ccccc1c2=O | Non-Toxic | 38.4 |  |
| O=C1c2ccccc2-n2c1nc1ccc(NS(=O)(=O)c3ccccc3F)cc1c2=O | Non-Toxic | 88.2 | IC50 (RAW264.7 [3]): 2.72 µM |
| O=C1c2ccccc2-n2c1nc1ccc(NS(=O)(=O)c3ccc(OC(F)(F)F)cc3)cc1c2=O | Non-Toxic | 63.6 |  |
| O=C1c2ccccc2-n2c1nc1ccc(NS(=O)(=O)c3c(Cl)cccc3Cl)cc1c2=O | Non-Toxic | 64.4 |  |
| O=C1c2cc(NS(=O)(=O)c3ccccc3OC(F)(F)F)ccc2-n2c1nc1ccccc1c2=O | Non-Toxic | 46.2 |  |
| O=C1c2ccccc2-n2c1nc1ccc(NS(=O)(=O)c3ccccc3OC(F)(F)F)cc1c2=O | Non-Toxic | 82.1 | IC50 (RAW264.7 [3]): 3.88 µM |
| COc1ccc2c(c1)c(CC(=O)O)c(C)n2C(=O)c1ccc(Cl)cc1 [INDOMETHACIN] | Non-Toxic | 32.1 |  |
| COc1ccc(S(=O)(=O)Nc2ccc3nc4n(c(=O)c3c2)-c2ccccc2C4=O)cc1OC | Non-Toxic | 73 |  |

| Structure (SMILES) | Activity (RAW264.7 [1]) | inhibition at 20 µM (RAW264.7 [2]) [%] | other results |
| --- | --- | --- | --- |
| O=C1c2ccccc2-n2c1nc1ccc(NS(=O)(=O)c3ccc(F)cc3)cc1c2=O | Non-Toxic | 85.4 | IC50 (RAW264.7 [3]): 2.73 µM |
| CC(C)c1cc(C(C)C)c(S(=O)(=O)Nc2ccc3nc4n(c(=O)c3c2)-c2ccccc2C4=O)c(C(C)C)c1 | Non-Toxic | 81.2 | IC50 (RAW264.7 [3]): 4.21 µM |
| O=C1c2ccccc2-n2c1nc1ccc(NS(=O)(=O)c3ccccc3C(F)(F)F)cc1c2=O | Non-Toxic | 74.9 |  |
| O=C1c2cc(NS(=O)(=O)c3ccc(Br)cc3)ccc2-n2c1nc1ccccc1c2=O | Non-Toxic | 18.8 |  |
| O=C1c2ccccc2-n2c1nc1ccc(NS(=O)(=O)c3cccc(F)c3)cc1c2=O | Non-Toxic | 64.4 |  |
| O=C1c2ccccc2-n2c1nc1ccccc1c2=O [TRYPTANTHRIN] |  | 31.3 |  |
| CC(=O)Nc1ccc(S(=O)(=O)Nc2ccc3c(c2)C(=O)c2nc4ccccc4c(=O)n2-3)cc1 | Non-Toxic | 17.3 |  |
| Cc1ccc(S(=O)(=O)Nc2ccc3c(c2)C(=O)c2nc4ccccc4c(=O)n2-3)cc1 | Non-Toxic | 55.8 |  |
| CC(C)(C)c1ccc(S(=O)(=O)Nc2ccc3nc4n(c(=O)c3c2)-c2ccccc2C4=O)cc1 | Non-Toxic | 58.2 |  |
| COc1ccc(S(=O)(=O)Nc2ccc3nc4n(c(=O)c3c2)-c2ccccc2C4=O)c(OC)c1 | Non-Toxic | 78 |  |
| COc1ccc(S(=O)(=O)Nc2ccc3c(c2)C(=O)c2nc4ccccc4c(=O)n2-3)c(OC)c1 | Non-Toxic | 55.1 |  |
| O=C1c2cc(NS(=O)(=O)c3ccccc3F)ccc2-n2c1nc1ccccc1c2=O | Non-Toxic | 49.1 |  |
| Cc1ccc(S(=O)(=O)Nc2ccc3nc4n(c(=O)c3c2)-c2ccccc2C4=O)cc1 | Non-Toxic | 90.2 | IC50 (RAW264.7 [3]): 2.89 µM |
| CC(=O)Nc1ccc(S(=O)(=O)Nc2ccc3nc4n(c(=O)c3c2)-c2ccccc2C4=O)cc1 | Non-Toxic | 47.2 |  |
| COc1ccc(S(=O)(=O)Nc2ccc3nc4n(c(=O)c3c2)-c2ccccc2C4=O)cc1 | Non-Toxic | 94 | Activity (RAW264.7 [4]): Dose-Dependent Effect; IC50 (RAW264.7 [4]): 11.5 µM; inhibition [5]: Dose-Dependent Effect; Activity (RAW264.7 [6]): Dose-Dependent Effect; inhibition [7]: Dose-Dependent Effect; Activity (Rattus norvegicus [8]): Dose-Dependent Effect; Activity (RAW264.7 [9]): Dose-Dependent Effect; IC50 (RAW264.7 [9]): 8.48 µM; Activity (Rattus norvegicus [10]): Dose-Dependent Effect; Activity (Rattus norvegicus [11]): Dose-Dependent Effect; Activity (Rattus norvegicus [12]): Active; Activity (RAW264.7 [13]): Dose-Dependent Effect; Activity (Rattus norvegicus [14]): Active; Activity [15]: Active; IC50 (RAW264.7 [3]): 1.25 µM; Activity (Rattus norvegicus [16]): Active; Activity (Rattus norvegicus [17]): Active |
| Nc1ccc2nc3n(c(=O)c2c1)-c1ccccc1C3=O |  | 38.1 |  |
| COc1ccc(S(=O)(=O)Nc2ccc3c(c2)C(=O)c2nc4ccccc4c(=O)n2-3)cc1 | Non-Toxic | 56.4 |  |
| COc1ccc(S(=O)(=O)Nc2ccc3c(c2)C(=O)c2nc4ccccc4c(=O)n2-3)cc1OC | Non-Toxic | 57.2 |  |
